In ChEMBL document CHEMBL4000220, “Optimization of spirocyclic proline tryptophan hydroxylase-1 inhibitors” (Bioorg Med Chem Lett, 2017):
One block for each compound: values may come before it.

Tests used:
[1] = tested on: Mus musculus; assay: Drug level in mouse treated with (S)-ethyl 8-(2-amino-6-((R)-1-(5-chloro-3'-sulfamoylbiphenyl-2-yl)-2,2,2-trifluoroethoxy)pyrimidin-4-yl)-2,8-diazaspiro[4.5]decane-3-carboxylate at 10 to 50 mg/kg, po administered as single dose; assay type: ADME, organism-based; details: in vivo
[2] = target: T1, Tryptophan 5-hydroxylase 1 (Homo sapiens, UniProt P17752)
T1 sequence (P17752 whole entry): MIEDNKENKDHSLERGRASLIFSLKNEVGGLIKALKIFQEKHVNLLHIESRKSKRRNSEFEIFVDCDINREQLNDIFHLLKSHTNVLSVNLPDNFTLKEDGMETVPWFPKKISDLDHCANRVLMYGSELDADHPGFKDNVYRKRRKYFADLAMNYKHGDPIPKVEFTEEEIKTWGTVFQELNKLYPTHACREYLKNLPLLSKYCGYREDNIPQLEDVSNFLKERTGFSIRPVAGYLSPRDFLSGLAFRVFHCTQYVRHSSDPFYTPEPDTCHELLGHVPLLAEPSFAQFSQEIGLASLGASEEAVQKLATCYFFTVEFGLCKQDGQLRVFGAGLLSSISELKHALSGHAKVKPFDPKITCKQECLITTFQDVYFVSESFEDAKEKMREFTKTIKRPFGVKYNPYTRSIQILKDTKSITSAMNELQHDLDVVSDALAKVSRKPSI
Description: Inhibition of TPH1 (unknown origin)

[3] = tested on: Mus musculus; assay: In vivo inhibition of TPH1 in mouse assessed as reduction in 5-HT level in intestinal mucosa at 50 mg/kg, po administered daily as single dose relative to control; assay type: functional
[4] = tested on: Mus musculus; assay: In vivo inhibition of TPH1 in mouse assessed as reduction in 5-HT level in intestinal mucosa at 10 mg/kg, po administered daily as single dose relative to control; assay type: functional
[5] = tested on: Mus musculus; assay: Prodrug activation in mouse assessed as (S)-8-(2-amino-6-((R)-1-(3'-tert-butyl-5-chlorobiphenyl-2-yl)-2,2,2-trifluoroethoxy)pyrimidin-4-yl)-2,8-diazaspiro[4.5]decane-3-carboxylic acid formation at 10 to 50 mg/kg, po administered as single dose; assay type: organism-based; details: in vivo
[6] = tested on: Mus musculus; assay: Prodrug activation in mouse assessed as (S)-8-(2-amino-6-((R)-1-(5-chloro-3',5'-difluorobiphenyl-2-yl)-2,2,2-trifluoroethoxy)pyrimidin-4-yl)-2,8-diazaspiro[4.5]decane-3-carboxylic acid formation at 10 to 50 mg/kg, po administered as single dose; assay type: organism-based; details: in vivo
[7] = tested on: Rattus norvegicus; assay: Clearance in rat at 1 mg/kg, iv relative to hepatic blood flow; assay type: ADME, organism-based; details: in vivo
[8] = tested on: Rattus norvegicus; assay: Volume of distribution at steady state in rat at 1 mg/kg, iv; assay type: ADME, organism-based; details: in vivo
[9] = tested on: Rattus norvegicus; assay: Half life in rat at 1 mg/kg, iv; assay type: ADME, organism-based; details: in vivo
[10] = target: T2, Tryptophan 5-hydroxylase 2 (Homo sapiens, UniProt Q8IWU9); assay: Inhibition of TPH2 (unknown origin)
T2 sequence (Q8IWU9 whole entry): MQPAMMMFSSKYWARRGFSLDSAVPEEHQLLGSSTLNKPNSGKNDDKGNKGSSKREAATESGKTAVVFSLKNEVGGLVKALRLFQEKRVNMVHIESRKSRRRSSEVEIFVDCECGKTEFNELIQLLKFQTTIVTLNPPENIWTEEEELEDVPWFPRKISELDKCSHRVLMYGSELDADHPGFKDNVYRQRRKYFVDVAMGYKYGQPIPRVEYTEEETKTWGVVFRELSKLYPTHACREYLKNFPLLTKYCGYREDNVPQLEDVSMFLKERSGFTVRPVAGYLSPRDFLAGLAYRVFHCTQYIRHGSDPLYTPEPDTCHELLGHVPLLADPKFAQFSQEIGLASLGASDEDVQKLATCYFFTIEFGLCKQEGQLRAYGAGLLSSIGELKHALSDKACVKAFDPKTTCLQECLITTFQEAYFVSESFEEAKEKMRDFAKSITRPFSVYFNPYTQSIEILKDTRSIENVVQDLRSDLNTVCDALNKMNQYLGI

[11] = Clearance in beagle dog at 1 mg/kg, iv; assay type: ADME, organism-based, Canis lupus familiaris; details: in vivo
[12] = tested on: Canis familiaris; assay: Clearance in beagle dog at 1 mg/kg, iv relative to hepatic blood flow; assay type: ADME, organism-based, Canis lupus familiaris; details: in vivo
[13] = Half life in beagle dog at 1 mg/kg, iv; assay type: ADME, organism-based, Canis lupus familiaris; details: beagle, in vivo
[14] = Volume of distribution at steady state in beagle dog at 1 mg/kg, iv; assay type: ADME, organism-based, Canis lupus familiaris; details: beagle, in vivo, read-out: Vdss
[15] = tested on: Mus musculus; assay: Drug level in mouse treated with (S)-ethyl 8-(2-amino-6-((R)-1-(5-chlorobiphenyl-2-yl)-2,2,2-trifluoroethoxy)pyrimidin-4-yl)-2,8-diazaspiro[4.5]decane-3-carboxylate at 10 to 50 mg/kg, po administered as single dose; assay type: ADME, organism-based; details: in vivo
[16] = tested on: Mus musculus; assay: Prodrug activation in mouse assessed as (S)-8-(2-amino-6-((R)-1-(5-chloro-3'-methoxybiphenyl-2-yl)-2,2,2-trifluoroethoxy)pyrimidin-4-yl)-2,8-diazaspiro[4.5]decane-3-carboxylic acid formation at 10 to 50 mg/kg, po administered as single dose; assay type: organism-based; details: in vivo
[17] = tested on: Mus musculus; assay: Prodrug activation in mouse assessed as (S)-8-(2-amino-6-((R)-1-(5-chloro-3'-methylbiphenyl-2-yl)-2,2,2-trifluoroethoxy)pyrimidin-4-yl)-2,8-diazaspiro[4.5]decane-3-carboxylic acid formation at 10 to 50 mg/kg, po administered as single dose; assay type: organism-based; details: in vivo
[18] = tested on: Mus musculus; assay: Prodrug activation in mouse assessed as (S)-8-(2-amino-6-((R)-1-(5-chloro-3'-(trifluoromethyl)biphenyl-2-yl)-2,2,2-trifluoroethoxy)pyrimidin-4-yl)-2,8-diazaspiro[4.5]decane-3-carboxylic acid formation at 10 to 50 mg/kg, po administered as single dose; assay type: organism-based; details: in vivo

Compound: CCOC(=O)[C@@H]1CC2(CCN(c3cc(O[C@H](c4ccc(Cl)cc4-c4cccc(C(C)(C)C)c4)C(F)(F)F)nc(N)n3)CC2)CN1
inhibition in vivo at 50 mg/kg [3]: 59%
inhibition in vivo at 10 mg/kg [4]: 33%
Drug metabolism [5]: Metabolite_Detected

Compound: CCOC(=O)[C@@H]1CC2(CCN(c3cc(O[C@H](c4ccc(Cl)cc4-c4cccc(OC)c4)C(F)(F)F)nc(N)n3)CC2)CN1
inhibition in vivo at 50 mg/kg [3]: 46%
inhibition in vivo at 10 mg/kg [4]: 19%
Drug metabolism [16]: Metabolite_Detected

Compound: CCOC(=O)[C@@H]1CC2(CCN(c3cc(O[C@H](c4ccc(Cl)cc4-c4cccc(C)c4)C(F)(F)F)nc(N)n3)CC2)CN1
inhibition in vivo at 50 mg/kg [3]: 54%
inhibition in vivo at 10 mg/kg [4]: 24%
Drug metabolism [17]: Metabolite_Detected

Compound: CCOC(=O)[C@@H]1CC2(CCN(c3cc(O[C@H](c4ccc(Cl)cc4-c4cccc(C(F)(F)F)c4)C(F)(F)F)nc(N)n3)CC2)CN1
inhibition in vivo at 50 mg/kg [3]: 64%
inhibition in vivo at 10 mg/kg [4]: 31%
Drug metabolism [18]: Metabolite_Detected

Further lines, with some results ahead:

Drug metabolism [1]: Metabolite_Detected
IC50 [2]: 11 nM
Compound: Nc1nc(O[C@H](c2ccc(Cl)cc2-c2cccc(S(N)(=O)=O)c2)C(F)(F)F)cc(N2CCC3(CC2)CN[C@H](C(=O)O)C3)n1

Drug metabolism [6]: Metabolite_Detected
Compound: CCOC(=O)[C@@H]1CC2(CCN(c3cc(O[C@H](c4ccc(Cl)cc4-c4cc(F)cc(F)c4)C(F)(F)F)nc(N)n3)CC2)CN1
inhibition in vivo at 50 mg/kg [3]: 37%
inhibition in vivo at 10 mg/kg [4]: 30%

CL [7]: 1.2%
Vdss [8]: 7.8 L/kg
t1/2 [9]: 12.1 h
IC50 [10]: 7 nM
clearance [11]: 1.2 mL/min/kg
CL [12]: 4%
half-life [13]: 4.8 h
Vd [14]: 0.24 L/kg
Drug metabolism [15]: Metabolite_Detected
IC50 [2]: 33 nM
Compound: Nc1nc(O[C@H](c2ccc(Cl)cc2-c2ccccc2)C(F)(F)F)cc(N2CCC3(CC2)CN[C@H](C(=O)O)C3)n1 [RODATRISTAT]
